The values below come from US7329660B2, “Phthalazine derivatives for treating inflammatory diseases” (Novartis AG, priority 1999, dated 2008).

For orientation: pIC50 means the IC50 on a negative log10 scale, so that one unit is a factor of ten. Read a low pIC50 as a high IC50. One may read the melting point as the temperature, or range, at which the solid turns liquid.

Molecules are shown by their SMILES. pIC50: −log10 of the molar value.

Data set [1] addresses T1, Flt-1 VEGF-receptor tyrosine kinase (Homo sapiens, UniProt P17948).
T1 construct: 10 ng of the kinase domain of Flt-1
T1 sequence (P17948 827-1158 limits assumed): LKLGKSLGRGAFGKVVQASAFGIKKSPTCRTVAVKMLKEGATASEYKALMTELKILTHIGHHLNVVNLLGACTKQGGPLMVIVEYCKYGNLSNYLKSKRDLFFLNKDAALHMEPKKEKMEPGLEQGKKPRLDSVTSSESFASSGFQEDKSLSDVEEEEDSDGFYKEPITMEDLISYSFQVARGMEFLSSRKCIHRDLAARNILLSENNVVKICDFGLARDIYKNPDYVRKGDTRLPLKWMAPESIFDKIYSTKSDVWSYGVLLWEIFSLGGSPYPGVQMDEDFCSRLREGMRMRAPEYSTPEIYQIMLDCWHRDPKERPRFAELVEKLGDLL
Description: Test for activity against Flt-1 VEGF-receptor tyrosine kinase. In kind it is biochemical. On the procedure: Test for activity against VEGF-receptor tyrosine kinase: the test is conducted using Flt-1 VEGF-receptor tyrosine kinase. […] The reaction is then ended by the addition of 10 μl 0.25 M ethylenediaminetetraacetate (EDTA) pH 7. Using a multichannel dispenser (LAB SYSTEMS, USA), an aliquot of 20 μl is applied to a PVDF (=polyvinyl difluoride) Immobilon P membrane (Millipore, USA), which is incorporated into a Millipore microtitre filter manifold, and connected to a vacuum. Following complete elimination of the liquid, the membrane is washed 4 times successively in a bath containing 0.5% phosphoric acid (H3PO4), incubated for 10 minutes each time while shaking, then mounted in a Hewlett Packard TopCount Manifold and the radioactivity measured after the addition of 10 μl Microscint® (β-scintillation counter liquid; Packard USA).
The test is conducted using Flt-1 VEGF-receptor tyrosine kinase, as described hereinabove.

The next data set has as its system male Wistar rats. Description: Rat adjuvant arthritis model, therapeutic dosing. The note with it: for % inhibition of swelling: day 15 to day 22, swelling of the tarsal joints. The data set is classed as in vivo.
Text: The well-known rat adjuvant arthritis model (Pearson, Proc. Soc. Exp. Biol. 91, 95-101 (1956)) is used to test the anti-arthritic activity of compounds of the formula I, or salts thereof. Adjuvant Arthritis can be treated uwing two different dosing schedules: either (i) starting time of immunisation with adjuvant (prophylactic dosing); or from day 15 when the arthritic response is already established (therapeutic dosing). Preferably a therapeutic dosing schedule is used. For comparison, e.g. SDZ115-155 (=DUP697) is administered in a separate group.
(§1) In detail, male Wistar rats (5 animals per group, weighing epproximately 200 g, supplied by Iffa Credo, France) are injected i.d. (intra-dermally) at the base of the tail with 0.1 ml of mineral oil containing 0.6 mg of lyophilised heat-killed Mycobacterium tuberculosis. The rats are treated with the test compound (3, 10 or 30 mg/kg p.o. once per day), or vehicle (water) from day 15 to day 22 (therapeutic dosing schedule). At the end of the experiment, the swelling of the tarsal joints is measured by means of a mico-calliper. Percentage inhibition of paw swelling is calculated by reference to vehicle treated arthritic animals (0% inhibition) and vehicle treated normal animals (100% inhibition).
The rat adjuvant arthritis model is used to test the anti-arthritic activity of the compound of Example 1 of WO 98/35958, 1-(4-chloroanilino)-4-(4-pyridylmethyl)phthalazine dihydrochloride. The therapeutic dosing schedule with start of treatment at day 15 after induction of arthritis is used.
as §1, with “Method: Male Wistar” for “In detail, male Wistar”, “(5 rats” for “(5 animals”, “group, weight about” for “group, weighing epproximately”, “200 g;” for “200 g, supplied by”, “of lyophilized” for “of lyophilised”, “p.o. s.i.d. (=once a” for “p.o. once per”

A further data set concerns male Sprague Dawley rats. Description: Rat inflammatory hyperalgesia model (Randall-Selitto paw pressure test). In kind it is in vivo. Conditions: 30 mg/kg p.o., 1 and 2 hours after dosing. On the procedure:
In this model, the hyperalgesia caused by an intra-planar yeast injection is measured by applying increased pressure to the foot until the animal vocalizes or withdraws its foot from the applied pressure pad. The model is sensitive to COX inhibitors, and diclofenac at 3 mg/kg is used as a positive control.
Method: The baseline pressure required to induce vocalization or withdrawal of the paw of male Sprague Dawley rats (weighing approximately 180 g, supplied by Iffa Credo, France) is measured (2 hours before treatment), followed by an intra-planar injection of 100 μl of a 20% yeast suspension in water in the hind paw. […]
In this model, the hyperalgesia caused by an intra-planar yeast injection is measured by applying increased pressure to the foot until the animal vocalizes or withdraws its foot from the applied pressure pad. […]
Method: The baseline pressure required to induce vocalization or withdrawal of the paw of male Sprague Dawley rats (5 rats per group; weight approximately 180 g, Iffa Credo, France) is measured (2 hours before treatment), followed by an intra-planar injection of 100 μl of a 20% yeast suspension in water in the hind paw. […] Pressure is measured with the standard apparatus from Ugo Basile, Italy, for the paw pressure test (Randall-Selitto).

As for `Cc1cccc(Nc2nnc(/C=C/c3cccnc3)c3ccccc23)c1` [1 (E isomer)], the pIC50 in data set [1] was 6.15.

In data set [1], `Cc1cccc(Nc2nnc(/C=C\c3cccnc3)c3ccccc23)c1` [1 (Z isomer)] had a pIC50 of 5.31. This pIC50 is 0.84 log units lower than that of the compound before. For the compound `Cl.Cl.Clc1ccc(Nc2nnc(Cc3ccncc3)c3ccccc23)cc1` [1-(4-chloroanilino)-4-(4-pyridylmethyl)phthalazine dihydrochloride], the “% inhibition of swelling” value in the data set on male Wistar rats (3 mg/kg p.o. once a day) was 0.8 ± 4.0%; in the data set with male Wistar rats (10 mg/kg p.o. once a day) it was 12.4 ± 5.0%; in the data set with male Wistar rats (30 mg/kg p.o. once a day) it was 37.0 ± 2.3%. Also, the “inhibition of paw swelling (in words)” value in the data set with male Wistar rats (3, 10 or 30 mg/kg p.o., dosing for 7 days from day 15) was “dose-related inhibition of paw swelling”. The “overall discomfort experienced by rats while being held for oral dosing” value with male Wistar rats (observation in the adjuvant arthritis model) is listed as “reduce the overall discomfort”. The “inhibition of paw hyperalgesia (in words)” value in the data set with male Sprague Dawley rats is listed as “inhibits paw hyperalgesia”. As to `CS(=O)(=O)c1ccc(-c2cc(Br)sc2-c2ccc(F)cc2)cc1` [115–155, reference compound], in the data set on male Wistar rats (3 mg/kg p.o. once a day), the “% inhibition of swelling” value was found to be 53.8 ± 2.7%. `Cc1cccc(Nc2nnc(CCc3cccnc3)c3ccccc23)c1` [Example 2] returned a melting point of 136 °C. This compound also had a negative logarithm of the IC50 (pIC50) in data set [1] of 6.50.

Regarding `FC(F)(F)c1cc(Nc2nnc(CCCc3cccnc3)c3ccccc23)ccc1Cl` [Example 8, 1-(4-Chloro-3-trifluoromethylanilino)-4-[3-(pyridin-3-yl)propyl]phthalazine], the melting point was in the range of 165 to 166 °C. Take `Cc1cc(Nc2nnc(Cc3ccncc3)c3ccccc23)nc(C)n1` [Example 15, 1-[(2,6-Dimethyl-pyrimidin-4-yl)-amino]4-(4-pyridyl-methyl)-phthalazine]: the melting point lay in the range of 232 to 233 °C. Still for that read-out and setting: the figure for `Cc1cc(Cc2nnc(Nc3cc(Br)cc(C(F)(F)F)c3)c3ccccc23)ccn1` [Example 23, 1-(3-Bromo-5-trifluoromethyl-anilino)-4-(2-methylpyridin-4-yl-methyl)-phthalazine] is 184 to 185 °C.
